As usually defined, the IC50 is the concentration at which inhibition is half-maximal.

This note sets out measurements from US20230373952A1, “LACTAM COMPOUNDS AS Kv1.3 POTASSIUM SHAKER CHANNEL BLOCKERS” (D.E. Shaw Research, LLC, priority 2020, published 2023).

Chain of hERG channel (Q12809 whole entry): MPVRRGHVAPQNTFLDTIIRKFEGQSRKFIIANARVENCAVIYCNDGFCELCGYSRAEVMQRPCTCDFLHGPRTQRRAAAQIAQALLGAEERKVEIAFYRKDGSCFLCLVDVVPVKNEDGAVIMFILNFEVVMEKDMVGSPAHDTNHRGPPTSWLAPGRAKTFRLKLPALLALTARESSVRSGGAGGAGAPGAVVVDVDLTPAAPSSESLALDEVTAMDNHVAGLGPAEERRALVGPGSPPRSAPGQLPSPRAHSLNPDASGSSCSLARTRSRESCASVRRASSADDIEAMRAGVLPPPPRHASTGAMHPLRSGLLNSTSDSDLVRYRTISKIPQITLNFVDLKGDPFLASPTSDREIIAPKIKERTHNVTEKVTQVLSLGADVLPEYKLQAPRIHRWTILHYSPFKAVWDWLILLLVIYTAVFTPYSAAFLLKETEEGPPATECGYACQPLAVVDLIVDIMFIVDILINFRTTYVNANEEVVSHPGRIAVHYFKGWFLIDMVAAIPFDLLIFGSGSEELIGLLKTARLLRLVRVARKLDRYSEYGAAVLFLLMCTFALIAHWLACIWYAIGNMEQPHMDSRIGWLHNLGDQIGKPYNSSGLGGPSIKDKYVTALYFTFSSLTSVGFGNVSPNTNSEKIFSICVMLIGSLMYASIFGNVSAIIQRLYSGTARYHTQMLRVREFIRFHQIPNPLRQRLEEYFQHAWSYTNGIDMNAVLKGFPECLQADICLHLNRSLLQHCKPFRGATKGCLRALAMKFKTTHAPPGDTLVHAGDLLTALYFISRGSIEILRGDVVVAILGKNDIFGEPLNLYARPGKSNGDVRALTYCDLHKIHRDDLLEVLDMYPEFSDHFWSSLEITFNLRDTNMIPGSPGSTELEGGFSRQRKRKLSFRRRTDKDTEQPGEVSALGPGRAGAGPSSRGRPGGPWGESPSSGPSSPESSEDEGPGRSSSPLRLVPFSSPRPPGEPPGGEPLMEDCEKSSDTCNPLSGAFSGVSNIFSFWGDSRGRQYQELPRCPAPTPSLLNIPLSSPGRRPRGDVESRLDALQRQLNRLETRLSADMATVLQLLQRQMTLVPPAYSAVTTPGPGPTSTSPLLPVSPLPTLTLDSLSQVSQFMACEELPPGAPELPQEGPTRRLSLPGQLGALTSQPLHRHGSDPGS

The target of the first assay is T1, Kv1.3 potassium channel (Homo sapiens, UniProt P22001).
T1 construct: expressed in transfected cells
T1 sequence (P22001 whole entry): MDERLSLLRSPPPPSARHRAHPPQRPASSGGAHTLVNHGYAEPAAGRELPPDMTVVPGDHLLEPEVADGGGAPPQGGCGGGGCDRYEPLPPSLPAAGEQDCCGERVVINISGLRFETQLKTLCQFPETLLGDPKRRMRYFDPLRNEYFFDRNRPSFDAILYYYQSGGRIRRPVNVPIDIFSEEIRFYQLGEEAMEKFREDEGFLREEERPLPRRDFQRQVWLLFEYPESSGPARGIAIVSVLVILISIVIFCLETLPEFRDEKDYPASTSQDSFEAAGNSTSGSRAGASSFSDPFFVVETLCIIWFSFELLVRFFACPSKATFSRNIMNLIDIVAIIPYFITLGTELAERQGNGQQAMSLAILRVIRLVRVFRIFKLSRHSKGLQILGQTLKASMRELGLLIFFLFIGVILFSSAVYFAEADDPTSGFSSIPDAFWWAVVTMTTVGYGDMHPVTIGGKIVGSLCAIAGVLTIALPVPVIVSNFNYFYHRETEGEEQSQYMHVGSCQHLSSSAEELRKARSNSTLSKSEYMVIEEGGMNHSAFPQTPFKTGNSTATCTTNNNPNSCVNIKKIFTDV
As to the kind of experiment: Kv1.3 potassium channel blocker activity, automated whole-cell patch clamp (Patchliner). Format: cell-based. As to conditions: CHO-K1 cells stably expressing Kv1.3; whole-cell current inhibition, Hill fit; read-out: Kv1.3 IC50. As to the method:
CHO-K1 cells stably expressing Kv1.3 were grown in DMEM containing 10% heat-inactivated FBS, 1 mM sodium pyruvate, 2 mM L-glutamine and G418 (500 μg/ml).
The currents were evoked by applying 100 ms depolarizing pulses from −90 mV (holding potential) to +40 mV were applied with 0.1 Hz frequency. […] 10-second breaks were used between pulse trains (see Table H below).
Passive leak currents were subtracted online using a P/4 procedure (HEKA Elektronik Dr. Schulze GmbH). […] Total compound incubation time before the next pulse train was not longer than 10 seconds. Peak current inhibition was observed during compound equilibration.
Consider `C[C@H](O)CN1C[C@H](c2c(O)ccc(Cl)c2Cl)CC1=O` [Compound 54, (4S)-4-(2,3-dichloro-6-hydroxyphenyl)-1-[(2S)-2-hydroxypropyl]pyrrolidin-2-one], for which the IC50 is under 0.1 µM.
As for `O=C1C[C@@H](c2c(O)ccc(Cl)c2Cl)CN1C1COC1` [Compound 24, (S)-4-(2,3-dichloro-6-hydroxyphenyl)-1-(oxetan-3-yl)pyrrolidin-2-one], the IC50 is under 0.1 µM.
Still for that read-out and setting: the figure for `N[C@@H]1C(=O)N(CCO)C[C@@H]1c1c(O)ccc(Cl)c1Cl` [Compound 105] is under 1 µM.
Consider `O=C1CC[C@H](c2c(O)ccc(Cl)c2Cl)CN1[C@H]1CCNC1` (single isomer, unassigned) [Compound 7, 5-(2,3-dichloro-6-hydroxyphenyl)-1-[pyrrolidin-3-yl]piperidin-2-one], for which the IC50 is under 0.1 µM.
`O=C1C[C@@H](c2c(O)ccc(Cl)c2Cl)CN1CCO` [Compound 29, (4S)-4-(2,3-dichloro-6-hydroxyphenyl)-1-(2-hydroxyethyl)pyrrolidin-2-one]: the IC50 is under 0.1 µM.
On the same count and under the same terms, the figure for `CC1[C@@H](c2c(O)ccc(Cl)c2Cl)CC(=O)N1C1CNC1` (stereo in doubt) [Compound 76, (4R,5R)-1-(azetidin-3-yl)-4-(2,3-dichloro-6-hydroxyphenyl)-5-methylpyrrolidin-2-one] is under 1 µM; for `O=C1C[C@@H](c2c(O)ccc(Cl)c2Cl)CN1C(CO)CO` [Compound 18, (4S)-4-(2,3-dichloro-6-hydroxyphenyl)-1-(1,3-dihydroxypropan-2-yl)pyrrolidin-2-one] it is under 1 µM; for `O=C1C[C@@H](c2c(O)ccc(Cl)c2Cl)CN1[C@H]1CCOC1` (single isomer, unassigned; isomer 1) [Compound 27] it is under 1 µM.
In the case of `O=C1C[C@@H](c2c(O)ccc(Cl)c2Cl)CCN1[C@@H]1CCNC1` (single isomer, unassigned) [Compound 4, 4-(2,3-dichloro-6-hydroxyphenyl)-1-[pyrrolidin-3-yl]piperidin-2-one], the concentration for half-maximal inhibition (IC50) is under 1 µM.
On the same count and under the same terms, the figure for `Cc1cc(N2C[C@H](c3c(O)ccc(Cl)c3Cl)CC2=O)sn1` [Compound 60, (S)-4-(2,3-dichloro-6-hydroxyphenyl)-1-(3-methylisothiazol-5-yl)pyrrolidin-2-one] is under 1 µM; for `CC(C)(O)CCN1C[C@H](c2c(O)ccc(Cl)c2Cl)CC1=O` [Compound 45, (S)-4-(2,3-dichloro-6-hydroxyphenyl)-1-(3-hydroxy-3-methylbutyl)pyrrolidin-2-one] it is under 1 µM; for `O=C1CC[C@@H](c2c(O)ccc(Cl)c2Cl)CN1[C@H]1CCNC1` (single isomer, unassigned) [Compound 6, 5-(2,3-dichloro-6-hydroxyphenyl)-1-[pyrrolidin-3-yl]piperidin-2-one] it is under 1 µM.
Same read-out and setting: the figure for `C[C@H]1[C@@H](c2c(O)ccc(Cl)c2Cl)CC(=O)N1C1CNC1` [Compound 83, (4R,5S)-1-(azetidin-3-yl)-4-(2,3-dichloro-6-hydroxyphenyl)-5-methylpyrrolidin-2-one] is under 10 µM.
Consider `C[C@H]1[C@@H](c2c(O)ccc(Cl)c2Cl)CC(=O)N1CCO` [Compound 85, (4R,5S)-4-(2,3-dichloro-6-hydroxyphenyl)-1-(2-hydroxyethyl)-5-methylpyrrolidin-2-one], for which the IC50 is under 30 µM.
The same measure, in the same setting: the figure for `CC1[C@@H](c2c(O)ccc(Cl)c2Cl)CC(=O)N1C[C@H](O)CO` (stereo in doubt) [Compound 78, (4R,5R)-4-(2,3-dichloro-6-hydroxyphenyl)-1-[(2S)-2,3-dihydroxypropyl]-5-methylpyrrolidin-2-one] is under 10 µM; for `N[C@@H](CO)CN1C[C@H](c2c(O)ccc(Cl)c2Cl)CC1=O` [Compound 49, (4S)-1-[(2R)-2-amino-3-hydroxypropyl]-4-(2,3-dichloro-6-hydroxyphenyl)pyrrolidin-2-one] it is under 0.1 µM.
Still for that read-out and setting: the figure for `O=C1N[C@H](c2c(O)ccc(Cl)c2Cl)CCN1[C@H]1CCNC1` (single isomer, unassigned) [Compound 10, 4-(2,3-dichloro-6-hydroxyphenyl)-1-[pyrrolidin-3-yl]-tetrahydropyrimidin-2(1H)-one] is under 1 µM; for `O=C1C[C@@H](c2c(O)ccc(Cl)c2Cl)CN1C1CCOC1` (single isomer, unassigned; isomer 2) [Compound 28] it is under 1 µM; for `Cn1cnc(N2C[C@H](c3c(O)ccc(Cl)c3Cl)CC2=O)c1` [Compound 59, (S)-4-(2,3-dichloro-6-hydroxyphenyl)-1-(1-methyl-1H-imidazol-4-yl)pyrrolidin-2-one] it is under 1 µM.
`O=C1N[C@@H](c2c(O)ccc(Cl)c2Cl)CCN1[C@H]1CCNC1` (single isomer, unassigned) [Compound 8, 4-(2,3-dichloro-6-hydroxyphenyl)-1-[pyrrolidin-3-yl]-tetrahydropyrimidin-2(1H)-one]: the IC50 is under 1 µM.
For the compound `C[C@H]1C(=O)N(C2CNC2)C[C@H]1c1c(O)ccc(Cl)c1Cl` (single isomer, unassigned; isomer 1) [Compound 87, 1-(azetidin-3-yl)-4-(2,3-dichloro-6-hydroxyphenyl)-3-methylpyrrolidin-2-one isomer 1], the IC50 was under 1 µM.
The same measure, in the same setting: the figure for `C[C@@H]1[C@H](c2c(O)ccc(Cl)c2Cl)CC(=O)N1CCO` [Compound 84, (4S,5R)-4-(2,3-dichloro-6-hydroxyphenyl)-1-(2-hydroxyethyl)-5-methylpyrrolidin-2-one] is under 1 µM; for `N[C@H](CO)CN1C[C@H](c2c(O)ccc(Cl)c2Cl)CC1=O` [Compound 50, (4S)-1-[(2S)-2-amino-3-hydroxypropyl]-4-(2,3-dichloro-6-hydroxyphenyl)pyrrolidin-2-one] it is under 0.1 µM.
The same measure, in the same setting: the figure for `O=C1C[C@@H](c2c(O)ccc(Cl)c2Cl)CN1c1cccnc1` [Compound 63, (S)-4-(2,3-dichloro-6-hydroxyphenyl)-1-(pyridin-3-yl)pyrrolidin-2-one] is under 1 µM; for `O=C1CO[C@@H](c2c(O)ccc(Cl)c2Cl)CN1CCO` (single isomer, unassigned; isomer 2) [Compound 96, 6-(2,3-dichloro-6-hydroxyphenyl)-4-(2-hydroxyethyl)morpholin-3-one isomer 2] it is under 30 µM; for `O=C1C[C@@H](c2c(O)ccc(Cl)c2Cl)CN1c1cnn(CCO)c1` [Compound 69, (S)-4-(2,3-dichloro-6-hydroxyphenyl)-1-(1-(2-hydroxyethyl)-1H-pyrazol-4-yl)pyrrolidin-2-one] it is under 0.1 µM.
As to `Cc1cc(N2C[C@H](c3c(O)ccc(Cl)c3Cl)CC2=O)no1` [Compound 73, (S)-4-(2,3-dichloro-6-hydroxyphenyl)-1-(5-methylisoxazol-3-yl)pyrrolidin-2-one], the IC50 is under 10 µM.
With `C[C@@H](O)CCN1C[C@H](c2c(O)ccc(Cl)c2Cl)CC1=O` (single isomer, unassigned; isomer 1) [Compound 47], the IC50 was under 0.1 µM.
Still for that read-out and setting: the figure for `N[C@@H]1C(=O)N(C2CNC2)C[C@H]1c1c(O)ccc(Cl)c1Cl` [Compound 91, (3S,4R)-3-amino-1-(azetidin-3-yl)-4-(2,3-dichloro-6-hydroxyphenyl)pyrrolidin-2-one] is under 10 µM; for `C[C@H](O)CCN1C[C@H](c2c(O)ccc(Cl)c2Cl)CC1=O` (single isomer, unassigned; isomer 2) [Compound 48] it is under 0.1 µM; for `C[C@@H]1C(=O)N(C2CNC2)C[C@H]1c1c(O)ccc(Cl)c1Cl` (single isomer, unassigned; isomer 2) [Compound 88, 1-(azetidin-3-yl)-4-(2,3-dichloro-6-hydroxyphenyl)-3-methylpyrrolidin-2-one isomer 2] it is under 10 µM.
Still for that read-out and setting: in the case of `O=C1C[C@H](c2c(O)ccc(Cl)c2Cl)CCN1[C@@H]1CCNC1` (single isomer, unassigned) [Compound 3, 4-(2,3-dichloro-6-hydroxyphenyl)-1-[pyrrolidin-3-yl]piperidin-2-one] it was under 1 µM; in that of `CC1[C@@H](c2c(O)ccc(Cl)c2Cl)CC(=O)N1CCO` (stereo in doubt) [Compound 80, (4R,5R)-4-(2,3-dichloro-6-hydroxyphenyl)-1-(2-hydroxyethyl)-5-methylpyrrolidin-2-one], under 10 µM.
For the compound `O=C1CN[C@H](c2c(O)ccc(Cl)c2Cl)CN1C1CNC1` (single isomer, unassigned; isomer 2) [Compound 98, 1-(azetidin-3-yl)-5-(2,3-dichloro-6-hydroxyphenyl)piperazin-2-one isomer 2], the IC50 was under 30 µM.
Regarding `O=C1CN[C@@H](c2c(O)ccc(Cl)c2Cl)CN1C1CNC1` (single isomer, unassigned; isomer 1) [Compound 97, 1-(azetidin-3-yl)-5-(2,3-dichloro-6-hydroxyphenyl)piperazin-2-one isomer 1], the IC50 was under 1 µM.
`C[C@H]1C(=O)N(C2CNC2)C[C@@H]1c1c(O)ccc(Cl)c1Cl` (single isomer, unassigned; isomer 3) [Compound 89, 1-(azetidin-3-yl)-4-(2,3-dichloro-6-hydroxyphenyl)-3-methylpyrrolidin-2-one isomer 3]: the IC50 is under 10 µM.

Staying with this assay, now noted: Kv1.3 IC50, CHO-K1 cells stably expressing Kv1.3; whole-cell current inhibition, Hill fit.
Compound `NC(=O)CN1C[C@H](c2c(O)ccc(Cl)c2Cl)CC1=O` [Compound 34, 2-[(4S)-4-(2,3-dichloro-6-hydroxyphenyl)-2-oxopyrrolidin-1-yl]acetamide] showed an IC50 of under 0.1 µM.

Another assay has as its target hERG channel (Homo sapiens, UniProt Q12809). Kind of assay: cell-based.
Details: not given
Compound `C[C@H](O)CN1C[C@H](c2c(O)ccc(Cl)c2Cl)CC1=O` [Compound 54, (4S)-4-(2,3-dichloro-6-hydroxyphenyl)-1-[(2S)-2-hydroxypropyl]pyrrolidin-2-one] returned an IC50 of over 30 µM.
On the same count and under the same terms, the figure for `O=C1C[C@@H](c2c(O)ccc(Cl)c2Cl)CN1C1COC1` [Compound 24, (S)-4-(2,3-dichloro-6-hydroxyphenyl)-1-(oxetan-3-yl)pyrrolidin-2-one] is over 30 µM; for `NC(=O)CN1C[C@H](c2c(O)ccc(Cl)c2Cl)CC1=O` [Compound 34, 2-[(4S)-4-(2,3-dichloro-6-hydroxyphenyl)-2-oxopyrrolidin-1-yl]acetamide] it is over 100 µM; for `N[C@@H]1C(=O)N(CCO)C[C@@H]1c1c(O)ccc(Cl)c1Cl` [Compound 105] it is over 100 µM.
On the same count and under the same terms, in the case of `O=C1CC[C@H](c2c(O)ccc(Cl)c2Cl)CN1[C@H]1CCNC1` (single isomer, unassigned) [Compound 7, 5-(2,3-dichloro-6-hydroxyphenyl)-1-[pyrrolidin-3-yl]piperidin-2-one] it was over 30 µM; in that of `O=C1C[C@@H](c2c(O)ccc(Cl)c2Cl)CN1CCO` [Compound 29, (4S)-4-(2,3-dichloro-6-hydroxyphenyl)-1-(2-hydroxyethyl)pyrrolidin-2-one], over 30 µM.
Still for that read-out and setting: the figure for `CC1[C@@H](c2c(O)ccc(Cl)c2Cl)CC(=O)N1C1CNC1` (stereo in doubt) [Compound 76, (4R,5R)-1-(azetidin-3-yl)-4-(2,3-dichloro-6-hydroxyphenyl)-5-methylpyrrolidin-2-one] is over 100 µM.
